Assay results published in US20210052546A1, “METHODS AND PHARMACEUTICAL COMPOSITIONS FOR THE TREATMENT OF FGFR3-RELATED CHONDRODYSPLASIAS” (INSERM (INSTITUT NATIONAL DE LA SANTÉ ET DE LA RECHERCHE …, priority 2018, published 2021).

Tests used:
Fgfr3^Y367C/+ femurs = assay: Ex vivo femur cultures isolated from Fgfr3Y367C/+ mice
Description: (§1) Several sets of ex vivo experiments were performed as previously described (Jonquoy et al., Hum Mol Genet, 21: 841-851, 2012). Femur embryos at day E16.5 from Fgfr3^+/+ (n=23) and Fgfr3^Y367C/+ (n=16) mice were used and incubated for 6 days in DMEM medium with antibiotics and 0.2% BSA (Sigma) supplemented with cocoa F5 or (−)-epicatechin (Sigma-0394-05-90) or DMSO (as control) at a concentration of 10 and 30 μg/ml. To establish the effect of the inhibitors, the left femur was cultured in supplemented medium and compared with the right one cultured in control medium. The bone length was measured at the beginning (before treatment) and at the end of time course. The genotype of Fgfr3^+/+ and Fgfr3^Y367C/+ mice were determined by PCR of tail DNA as previously described (Pannier et al., Biochim Biophys Acta, 1792: 140-147, 2009). All experimental procedures and protocols were approved by the Animal Care and Use Committee.

[1] = tested on: Fgfr3^Y367C/+ chondrocytes; assay: Primary cilium length in antenatal E16.5 Fgfr3Y367C/+ chondrocytes (immunocytochemistry); format: cell-based, mice
Description: Cultured chondrocytes issued from Fgfr3^Y367C/+ were fixed at room temperature for 10 min in methanol (chilled at −20° C.), and then washed with PBS. Samples were permeabilized for 10 min with PBS containing 0.1% Triton-X100 (Sigma-Aldrich), then washed three times for 5 min. Samples were incubated with PBS containing 10% goat serum (Biowest) for 60 min at room temperature. Primary antibodies were incubated at 4° C. overnight. The following primary antibodies were used: mouse IgG1 anti-γ-tubulin (Sigma-Aldrich #T6557, 1:1000) and rabbit anti-Ar113b (Proteintech #177111-AP, 1:500). Cells were washed with PBS, and then incubated with goat anti-mouse IgG1 coupled with AlexaFluor 488 (Life Technologies, 1:1000) and goat anti-rabbit coupled with AlexaFluor 647 (Life Technologies, 1:1000) secondary antibodies for 2h at room temperature in the dark. Samples were extensively washed and mounted with a solution of DAPI-Fluoromount G (SouthernBiotech) containing DAPI (4′,6′-diamidino-2-phenylindole) for nuclear staining. Image acquisition were captured using a Spinning disk confocal microscope. […] In order to compare measured data, all confocal experiments showing PC length was acquired in same conditions using slice thickness of 0.20 μm and a pixel size of 60 nm. […] We next measured in 2D the PC lengths by IMARIS software (Bitplane).

Fgfr3^+/+ femurs = assay: Ex vivo femur cultures isolated from Fgfr3+/+ mice
Description: as §1

growth plate cartilage = assay: Histology and immunohistochemistry of growth plate cartilage of cultured femur explants; design: species or system mice
Description: In order to appreciate the impact of the treatment on the growth plate cartilage, we performed histological and immunohistological studies. We selected specific markers of the cartilage, SOX9 and Collagen type X, we tested the expression of the protein FGFR3 and we also evaluated the expression of the phosphorylated Erk1/2 proteins of the […] signalling and activated by FGFR3. Limb explants were fixed after culture in 4% paraformaldehyde at 4° C. and embedded in paraffin. Serial 5 μm sections were stained with Hematoxylin-Eosin using standard protocols for histological analysis or were subjected to immunohistochemical staining. For immunohistochemistry, sections were stained with antibodies specific to FGFR3 (1:100 dilution; Sigma), anti-Collagen type X (1:50 dilution; Quartett) anti-SOX9 (1:1000 dilution; Abcam), anti-phosphorylated Erk1/2 (1:100 dilution; Cell signaling) using the Dako Envision system kit. Images were captured with an Olympus PD70-IX2-UCB microscope.

[2] = proximal and distal femurs, immunohistochemistry

For Oc1cc(O)c2c(c1)O[C@H](c1ccc(O)c(O)c1)[C@H](O)C2 [(−)-epicatechin, (2R,3R)-2-(3,4-dihydroxyphenyl)-3,4-dihydro-2H-chromene-3,5,7-triol], the “size of the femurs, Fgfr3Y367C/+” value (Fgfr3^Y367C/+ femurs; 1 μg/ml (FIG. 13)) was “did not improve”, the “percentage of femur growth in Fgfr3Y367C/+ mice versus Fgfr3+/+ mice” value (Fgfr3^Y367C/+ femurs; 10 μg/ml, 6 days culture) was “more important” and the “increase of length of the Fgfr3Y367C/+ femurs comparing to Fgfr3+/+ femurs” value (Fgfr3^Y367C/+ femurs; 10 μg/ml, E16.5 femurs, 6 days culture) was “+10%”. For the same molecule, the “effect on primary cilium” value ([1]; Fgfr3Y367C/+ chondrocytes) was “elongation”, the “primary cilium average length (A)” value ([1]; Fgfr3Y367C/+ chondrocytes treated with (−)-epicatechin, n=113, N=3, mean+S.E.M., untreated 2.10+0.06, in µm) was 2.45+0.09 and the “size of the femurs, Fgfr3+/+” value (Fgfr3^+/+ femurs; 1 μg/ml (FIG. 13)) was “did not improve”. The “growth of the Fgfr3+/+ femurs” value (Fgfr3^+/+ femurs; 10 μg/ml, 6 days culture) was “did not impair”, the “reserve, proliferative and pre-hypertrophic zones of the growth plate cartilage” value (growth plate cartilage; H&E staining) was “increased” and the “whole growth plate cartilage” value (growth plate cartilage; H&E staining) was “improved”. For the same molecule, the epiphysis size (growth plate cartilage; proximal and distal femur, histology) was “increase size”, the FGFR3 expression (growth plate cartilage; [2]) was “strongly decreased” and the SOX9 expression (growth plate cartilage; [2]) was “strongly decreased”. The “collagen type X expression” value (growth plate cartilage; [2]) was “not modified” and the “phosphorylated Erk1/2 expression” value (growth plate cartilage; [2]) was “slightly decreased”.
